Tests used:
Type in all cases: in vivo
[1] = tested on: cocklebur (Xanthium strumarium); test: Test B pre-/postemergence plant response
Description: (§1) Seeds of plant species selected from blackgrass (Alopecurus myosuroides), downy bromegrass (Bromus tectorum), green foxtail (Setaria viridis), Italian ryegrass (Lolium multiflorum), wheat (Triticum aestivum), wild oat (Avena fatua), deadnettle (henbit deadnettle, Lamium amplexicaule), galium (catchweed bedstraw, Galium aparine), bermudagrass (Cynodon dactylon), Surinam grass (Brachiaria decumbens), cocklebur (Xanthium strumarium), corn (Zea mays), large crabgrass (Digitaria sanguinalis), woolly cupgrass (Eriochloa villosa), giant foxtail (Setaria faberii), goosegrass (Eleusine indica), johnsongrass (Sorghum halepense), kochia (Kochia scoparia), lambsquarters (Chenopodium album), morningglory (Ipomoea coccinea), nightshade (eastern black nightshade, Solanum ptycanthum), yellow nutsedge (Cyperus esculentus), pigweed (Amaranthus retroflexus), ragweed (common ragweed, Ambrosia elatior), Russian thistle (Salsola kali), soybean (Glycine max), sunflower (common oilseed sunflower, Helianthus annuus) and velvetleaf (Abutilon theophrasti) were planted into a blend of loam soil and sand and treated preemergence with test compounds formulated in a non-phytotoxic solvent mixture which included a surfactant.
(§2) At the same time, plants selected from these crop and weed species and also winter barley (Hordeum vulgare), canarygrass (Phalaris minor), chickweed (Stellaria media) and windgrass (Apera spica-venti) were planted in pots containing Redi-Earth® planting medium (Scotts Company, 14111 Scottslawn Road, Marysville, Ohio 43041) comprising spaghnum peat moss, vermiculite, wetting agent and starter nutrients and treated with postemergence applications of some of the test chemicals formulated in the same manner. Plants ranged in height from 2 to 18 cm (1- to 4-leaf stage) for postemergence treatments.
(§3) Treated plants and controls were maintained in a greenhouse for 13 to 15 days, after which time all treated plants were visually evaluated and compared to controls. Plant response ratings, summarized in Table B, are based on a scale of 0 to 100 where 0 is no effect and 100 is complete control. A dash (-) response means no test result.

[2] = tested on: green foxtail (Setaria viridis); test: Test B pre-/postemergence plant response
Description: as §1, §2, §3

[3] = tested on: giant foxtail (Setaria faberii); test: Test B pre-/postemergence plant response
Description: as §1, §2, §3

[4] = tested on: barnyardgrass (Echinochloa crus-galli); test: Test A pre-/postemergence plant response
Method in brief: (§4)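 Visual injury rating on a 0–100 scale (0 = no effect, 100 = complete control) was made versus untreated controls after about ten days in the greenhouse. Compounds, formulated in a non-phytotoxic solvent mix containing surfactant, were sprayed preemergence onto loam/sand soil and postemergence onto one- to two-leaf plants.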

[5] = tested on: velvetleaf (Abutilon theophrasti); test: Test A pre-/postemergence plant response
Method in brief: as §4

[6] = tested on: corn (Zea mays); test: Test A pre-/postemergence plant response
Method in brief: as §4

[7] = tested on: morningglory (Ipomoea spp.); test: Test A pre-/postemergence plant response
Method in brief: as §4

[8] = tested on: wheat (Triticum aestivum); test: Test A pre-/postemergence plant response
Method in brief: as §4

[9] = tested on: giant foxtail (Setaria faberii); test: Test A pre-/postemergence plant response
Method in brief: as §4

[10] = tested on: large crabgrass (Digitaria sanguinalis); test: Test A pre-/postemergence plant response
Method in brief: as §4

[11] = tested on: pigweed (Amaranthus retroflexus); test: Test A pre-/postemergence plant response
Method in brief: as §4

[12] = Postemergence, 31 g ai/ha, 0 to 100 scale (0 no effect, 100 complete control)
[13] = Postemergence, 125 g ai/ha, scale 0 to 100 (0 no effect, 100 complete control)
[14] = Postemergence, 250 g ai/ha, scale 0 to 100 (0 no effect, 100 complete control), 13 to 15 days
[15] = Postemergence, 62 g ai/ha, scale 0 to 100 (0 no effect, 100 complete control)
[16] = Preemergence, 125 g ai/ha, scale 0 to 100, 0 no effect, 100 complete control
[17] = Preemergence, 250 g ai/ha, 0 to 100 scale
[18] = Preemergence, 31 g ai/ha, scale 0 to 100 (0 no effect, 100 complete control)
[19] = Preemergence, 62 g ai/ha, scale 0 to 100, 0 no effect, 100 complete control
[20] = Postemergence, 1000 g ai/ha, 0 to 100 scale, 0 = no effect, 100 = complete control, approx. ten days
[21] = Preemergence, 1000 g ai/ha, visual injury, 0 to 100 scale (0 no effect, 100 complete control), approx. ten days
[22] = 250 g ai/ha, Preemergence, 0 to 100 scale
[23] = Postemergence, 31 g ai/ha, scale 0 to 100 (0 no effect, 100 complete control)
[24] = Postemergence, 62 g ai/ha, scale 0 (no effect) to 100 (complete control), 13 to 15 days
[25] = Postemergence, 125 g ai/ha, visual rating after 13 to 15 days, scale 0 (no effect) to 100 (complete control)
[26] = Postemergence, 250 g ai/ha, scale 0 to 100
[27] = Preemergence, 125 g ai/ha, 0 to 100 scale
[28] = Postemergence, 125 g ai/ha, visual injury, 0 to 100 scale (0 no effect, 100 complete control), approx. ten days
[29] = Postemergence, 500 g ai/ha, 0 to 100 scale, 0 = no effect, 100 = complete control, approx. ten days
[30] = Preemergence, 125 g ai/ha, 0 to 100 scale, 0 = no effect, 100 = complete control
[31] = Preemergence, 500 g ai/ha, visual injury, 0 to 100 scale (0 no effect, 100 complete control), approx. ten days

CCCc1ncc(C(=O)C2=C(O)CCCC2=O)c(=O)n1-c1ccccc1 [Compound 217]
Plant response rating, Cocklebur [1, 12]: 80
Plant response rating, Cocklebur [1, 13]: 98
Plant response rating, Cocklebur [1, 14]: 100
Plant response rating, Cocklebur [1, 15]: 98
Plant response rating, Cocklebur [1, 16]: 85
Cocklebur plant response rating [1, 17]: 85
Plant response rating, Foxtail, Green [2, 12]: 55
Plant response rating, Foxtail, Green [2, 13]: 85
Plant response rating, Foxtail, Green [2, 14]: 90
Plant response rating, Foxtail, Green [2, 15]: 60
Plant response rating, Foxtail, Green [2, 18]: 0
Plant response rating, Foxtail, Green [2, 19]: 0
Plant response rating, Foxtail, Green [2, 16]: 0
Foxtail, Green plant response rating [2, 17]: 90
Plant response rating, Foxtail, Giant [3, 12]: 70
Plant response rating, Foxtail, Giant [3, 13]: 85
Plant response rating, Foxtail, Giant [3, 14]: 90
Plant response rating, Foxtail, Giant [3, 15]: 75
Plant response rating, Foxtail, Giant [3, 18]: 5
Plant response rating, Foxtail, Giant [3, 19]: 40
Plant response rating, Foxtail, Giant [3, 16]: 75
Foxtail, Giant plant response rating [3, 17]: 85
Plant response rating, Barnyardgrass [4, 20]: 90
Plant response rating, Barnyardgrass [4, 21]: 80
Plant response rating, Velvetleaf [5, 20]: 100
Plant response rating, Velvetleaf [5, 21]: 100
Plant response rating, Corn [6, 20]: 40
Plant response rating, Corn [6, 21]: 0
Plant response rating, Morningglory [7, 20]: 100
Plant response rating, Morningglory [7, 21]: 70
Plant response rating, Wheat [8, 20]: 40
Plant response rating, Wheat [8, 21]: 30
Plant response rating, Foxtail, Giant [9, 20]: 80
Plant response rating, Foxtail, Giant [9, 21]: 80
Plant response rating, Crabgrass, Large [10, 20]: 100
Plant response rating, Crabgrass, Large [10, 21]: 100
Plant response rating, Pigweed [11, 20]: 100
Plant response rating, Pigweed [11, 21]: 100

Cc1cc(F)ccc1-n1c(-c2ccccc2)ncc(C(=O)C2=C(O)CCCC2=O)c1=O [Compound 48]
Plant response rating, Cocklebur [1, 22]: 85
Plant response rating, Cocklebur [1, 23]: 95
Plant response rating, Cocklebur [1, 24]: 95
Plant response rating, Cocklebur [1, 25]: 98
Cocklebur plant response rating [1, 26]: 98
Plant response rating, Cocklebur [1, 19]: 0
Cocklebur plant response rating [1, 27]: 0
Plant response rating, Foxtail, Green [2, 22]: 98
Plant response rating, Foxtail, Green [2, 23]: 85
Plant response rating, Foxtail, Green [2, 24]: 95
Plant response rating, Foxtail, Green [2, 25]: 95
Foxtail, Green plant response rating [2, 26]: 95
Plant response rating, Foxtail, Green [2, 18]: 60
Plant response rating, Foxtail, Green [2, 19]: 60
Foxtail, Green plant response rating [2, 27]: 98
Plant response rating, Foxtail, Giant [3, 22]: 98
Plant response rating, Foxtail, Giant [3, 23]: 85
Plant response rating, Foxtail, Giant [3, 24]: 85
Plant response rating, Foxtail, Giant [3, 25]: 95
Foxtail, Giant plant response rating [3, 26]: 98
Plant response rating, Foxtail, Giant [3, 18]: 20
Plant response rating, Foxtail, Giant [3, 19]: 75
Foxtail, Giant plant response rating [3, 27]: 85
Barnyardgrass plant response rating [4, 28]: 80
Plant response rating, Barnyardgrass [4, 29]: 90
Plant response rating, Barnyardgrass [4, 30]: 20
Plant response rating, Barnyardgrass [4, 31]: 100
Velvetleaf plant response rating [5, 28]: 100
Plant response rating, Velvetleaf [5, 29]: 100
Plant response rating, Velvetleaf [5, 30]: 80
Plant response rating, Velvetleaf [5, 31]: 100
Corn plant response rating [6, 28]: 0
Plant response rating, Corn [6, 29]: 30
Plant response rating, Corn [6, 30]: 0
Plant response rating, Corn [6, 31]: 0
Morningglory plant response rating [7, 28]: 90
Plant response rating, Morningglory [7, 29]: 100
Plant response rating, Morningglory [7, 30]: 40
Plant response rating, Morningglory [7, 31]: 80
Wheat plant response rating [8, 28]: 0
Plant response rating, Wheat [8, 29]: 20
Plant response rating, Wheat [8, 30]: 0
Plant response rating, Wheat [8, 31]: 0
Foxtail, Giant plant response rating [9, 28]: 90
Plant response rating, Foxtail, Giant [9, 29]: 100
Plant response rating, Foxtail, Giant [9, 30]: 70
Plant response rating, Foxtail, Giant [9, 31]: 90
Crabgrass, Large plant response rating [10, 28]: 90
Plant response rating, Crabgrass, Large [10, 29]: 100
Plant response rating, Crabgrass, Large [10, 30]: 90
Plant response rating, Crabgrass, Large [10, 31]: 100
Pigweed plant response rating [11, 28]: 100
Plant response rating, Pigweed [11, 29]: 100
Plant response rating, Pigweed [11, 30]: 90
Plant response rating, Pigweed [11, 31]: 100

Source: patent US8952024B2, “Herbicidal pyrimidone derivatives” (E I du Pont de Nemours and Company, priority 2009, dated 2015)
